Data as given in patent US7058616B1, “Method and system for predicting resistance of a disease to a therapeutic agent using a neural network” (Virco Bvba, priority 2000, dated 2006).

Tested on: HIV-1
Test: MT-4 cell viral cytopathic effect protection assay, phenotypic susceptibility of patient recombinant virus
Type: cell-based
Protocol: Phenotypic susceptibility was determined using a MT-4 cell viral cytopathic effect protection assay. See, e.g., Kashiwase et al., Chemotherapy 45(1):48–55 (1999), expressly incorporated herein by reference; Larder et al., Antimicrob. Agents Chemother. 43(8):1961–1967 (1999).

[1] = Table 13/14 sample 7: 71V,73S,90M, 20I,63P

CC(C)c1nc(CN(C)C(=O)N[C@H](C(=O)N[C@@H](Cc2ccccc2)C[C@H](O)[C@H](Cc2ccccc2)NC(=O)OCc2cncs2)C(C)C)cs1 [Ritonavir]
actual phenotype (Table 13/14 sample 2: 10I,46I,48V,77I,82A,90M, 10E,58E,63T): S (A fold resistance of less than or equal to 4 is considered to be ‘sensitive’)
actual phenotype (Table 13/14 sample 6: 10I,48V,54V,82A, 13V): R (if the value is greater than 10, it is considered to be ‘resistant’)
actual phenotype [1]: I (greater than 4 and less than 10 is considered to be ‘intermediate’)
actual phenotype (Table 13/14 sample 14: 10I,46I,71T,77I,90M, 57K,63P,93L): S (A fold resistance of less than or equal to 4 is considered to be ‘sensitive’)
actual phenotype (Table 13/14 sample 17: 46I,77I,90M, 10F,20L,63P): I (greater than 4 and less than 10 is considered to be ‘intermediate’)

Cc1c(O)cccc1C(=O)N[C@@H](CSc1ccccc1)[C@H](O)CN1C[C@H]2CCCC[C@H]2C[C@H]1C(=O)NC(C)(C)C [Nelfinavir]
actual phenotype resistance level (PI test sample 2): R/R (if the value is greater than 10, it is considered to be ‘resistant’)
actual phenotype resistance level (PI test sample 3): R/R (if the value is greater than 10, it is considered to be ‘resistant’)
actual phenotype resistance level (PI test sample 4): R/R (if the value is greater than 10, it is considered to be ‘resistant’)
actual phenotype resistance level (PI test sample 5): R/R (if the value is greater than 10, it is considered to be ‘resistant’)
actual phenotype resistance level (PI test sample 7): R/R (if the value is greater than 10, it is considered to be ‘resistant’)
actual phenotype resistance level (PI test sample 8): R/R (if the value is greater than 10, it is considered to be ‘resistant’)
actual phenotype resistance level (PI test sample 9): R/R (if the value is greater than 10, it is considered to be ‘resistant’)
actual phenotype resistance level (PI test sample 10): R (if the value is greater than 10, it is considered to be ‘resistant’)
actual phenotype resistance level (PI test sample 11): I/I (greater than 4 and less than 10 is considered to be ‘intermediate’)
actual phenotype resistance level (PI test sample 13): R/R (if the value is greater than 10, it is considered to be ‘resistant’)
actual phenotype resistance level (PI test sample 14): R/R (if the value is greater than 10, it is considered to be ‘resistant’)
actual phenotype resistance level (PI test sample 15): R/R (if the value is greater than 10, it is considered to be ‘resistant’)
actual phenotype resistance level (PI test sample 16): R/R (if the value is greater than 10, it is considered to be ‘resistant’)
actual phenotype resistance level (PI test sample 17): R/R (if the value is greater than 10, it is considered to be ‘resistant’)
actual phenotype resistance level (PI test sample 18): R/R (if the value is greater than 10, it is considered to be ‘resistant’)
actual phenotype resistance level (PI test sample 19): R (if the value is greater than 10, it is considered to be ‘resistant’)
actual phenotype resistance level (PI test sample 19, listed as NFV): R/R (if the value is greater than 10, it is considered to be ‘resistant’)
actual phenotype resistance level (PI test sample 20): R/R (if the value is greater than 10, it is considered to be ‘resistant’)
actual phenotype resistance level (PI test sample 21): R/R (if the value is greater than 10, it is considered to be ‘resistant’)
actual phenotype resistance level (PI test sample 22): R (if the value is greater than 10, it is considered to be ‘resistant’)
actual phenotype resistance level (PI test sample 23): R/R (if the value is greater than 10, it is considered to be ‘resistant’)
actual phenotype resistance level (PI test sample 24): R/R (if the value is greater than 10, it is considered to be ‘resistant’)
actual phenotype resistance level (PI test sample 25): R/R (if the value is greater than 10, it is considered to be ‘resistant’)
actual phenotype resistance level (PI test sample 26): R/R (if the value is greater than 10, it is considered to be ‘resistant’)
actual phenotype resistance level (PI test sample 32): R/R (if the value is greater than 10, it is considered to be ‘resistant’)
actual phenotype resistance level (PI test sample 33): R/R (if the value is greater than 10, it is considered to be ‘resistant’)
actual phenotype resistance level (PI test sample 34): R/R (if the value is greater than 10, it is considered to be ‘resistant’)
actual phenotype resistance level (PI test sample 35): R/R (if the value is greater than 10, it is considered to be ‘resistant’)
actual phenotype resistance level (PI test sample 36): R/R (if the value is greater than 10, it is considered to be ‘resistant’)
actual phenotype resistance level (PI test sample 37): R/R (if the value is greater than 10, it is considered to be ‘resistant’)
actual phenotype resistance level (PI test sample 38): R/R (if the value is greater than 10, it is considered to be ‘resistant’)
actual phenotype resistance level (PI test sample 39): R/R (if the value is greater than 10, it is considered to be ‘resistant’)
actual phenotype resistance level (PI test sample 40): R/R (if the value is greater than 10, it is considered to be ‘resistant’)
actual phenotype resistance level (PI test sample 41): R/R (if the value is greater than 10, it is considered to be ‘resistant’)
actual phenotype resistance level (PI test sample 42): I/I (greater than 4 and less than 10 is considered to be ‘intermediate’)
actual phenotype resistance level (PI test sample 44): R/R (if the value is greater than 10, it is considered to be ‘resistant’)
actual phenotype resistance level (PI test sample 45): R/R (if the value is greater than 10, it is considered to be ‘resistant’)
actual phenotype resistance level (Table 3 testing sample 1): S/S (A fold resistance of less than or equal to 4 is considered to be “sensitive,”)
actual phenotype resistance level (Table 3 testing sample 4): R/R (if the value is greater than 10, it is considered to be “resistant.”)
actual phenotype resistance level (Table 3 testing sample 5): R/R (if the value is greater than 10, it is considered to be “resistant.”)
actual phenotype resistance level (Table 3 testing sample 6): R/R (if the value is greater than 10, it is considered to be “resistant.”)
actual phenotype resistance level (Table 3 testing sample 7): S/S (A fold resistance of less than or equal to 4 is considered to be “sensitive,”)
actual phenotype resistance level (Table 3 testing sample 8): R/R (if the value is greater than 10, it is considered to be “resistant.”)
actual phenotype resistance level (Table 3 testing sample 10): R/R (if the value is greater than 10, it is considered to be “resistant.”)
actual phenotype (Table 13/14 sample 1: 10I,71V,73S,84V,90M, 63P,85V,93L): R (if the value is greater than 10, it is considered to be ‘resistant’)
actual phenotype (Table 13/14 sample 3: 10I, 36V,93L): R (if the value is greater than 10, it is considered to be ‘resistant’)
actual phenotype (Table 13/14 sample 5: 10V,30N, 13V,63P): R (if the value is greater than 10, it is considered to be ‘resistant’)
actual phenotype [1]: R (if the value is greater than 10, it is considered to be ‘resistant’)
actual phenotype (Table 13/14 sample 10: 46I,71V,73S,90M, 20I,63P,93L): R (if the value is greater than 10, it is considered to be ‘resistant’)
actual phenotype (Table 13/14 sample 18: 36I,71T,90M, 63P,93L): R (if the value is greater than 10, it is considered to be ‘resistant’)
actual phenotype (Table 13/14 sample 20: 77I,88S, 13V, 63P, 93L): R (if the value is greater than 10, it is considered to be ‘resistant’)
